From patent US20260274794A1, “COMPOUNDS, COMPOSITIONS, AND METHOD OF INHIBITING TAU PROTEIN AND ALPHASYNUCLEIN AGGREGATION” (Purdue Research Foundation, priority 2023, published 2026)

Columns and labels:
Assay type in all cases: biochemical
tau isoform 2N4R [1] = target: T1, tau isoform 2N4R (Homo sapiens, UniProt P10636); test: ThT fluorescence assay of tau isoform 2N4R fibril formation; details: compound 100 μM, tau 2N4R 6 μM
T1 construct: made in house; host or cells: E. coli BL21 (DE3), vector pRK172
T1 sequence (P10636 1-441 isoform P10636-8): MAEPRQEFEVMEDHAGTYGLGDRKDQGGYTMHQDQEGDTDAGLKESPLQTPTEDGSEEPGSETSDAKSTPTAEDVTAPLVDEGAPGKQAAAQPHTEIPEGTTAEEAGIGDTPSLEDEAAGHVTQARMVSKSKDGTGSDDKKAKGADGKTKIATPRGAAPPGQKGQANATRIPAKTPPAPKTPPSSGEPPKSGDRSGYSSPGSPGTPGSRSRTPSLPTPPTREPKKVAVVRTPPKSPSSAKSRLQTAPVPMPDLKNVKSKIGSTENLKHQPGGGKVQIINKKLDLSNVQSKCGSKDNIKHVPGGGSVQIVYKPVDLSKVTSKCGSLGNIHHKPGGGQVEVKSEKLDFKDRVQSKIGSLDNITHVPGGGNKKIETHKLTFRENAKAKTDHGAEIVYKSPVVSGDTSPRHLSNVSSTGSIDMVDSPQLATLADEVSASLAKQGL
Description: (§1) ThT fluorescence is routinely established assay to follow the kinetics of α-syn fibril formation with different drug candidate treatments. Compounds were first tested at a final of concentration of 100 μM and α-syn and 2N4R tau were prepared at 2 μM and 6 μM, respectively. Compounds with highest anti-fibrillary activity were tested at 3.125, 6.25, 12.5, 25, 50, and 100 μM to obtain dose-response curves.
Concerning the non-phosphorylated tau (isoform 2N4R) kinetics of fibril formation, ThT was performed with the tau protein solution was diluted to a final concentration of 6 μM in PBS (pH 7.4) supplemented with 1.5 μM heparin, 20 μM ThT, 2.5 mM DTT, and 100 μM compound. Aliquots of the diluted protein solution (100 μL each) were pipetted into the wells of a 96-well plate, and a Teflon ball was added to each well. The plate was incubated at 37° C. with constant shaking at 1,000 rpm in a Tecan Stark plate reader. ThT fluorescence was measured every 15 min with excitation and emission wavelengths of 440 nm and 480 nm, and the data were plotted using GraphPad Prism.
Various structural analogs were first tested at a final concentration of 100 μM in the presence of tau 2N4R at 6 μM. Compounds 2, 4-8, and 17 were pre-selected with α-syn ThT assay prior to evaluation on the tau isoform 2N4R.

α-synuclein (α-syn) = target: T2, α-synuclein (α-syn) (Homo sapiens, UniProt P37840); test: Thioflavin T (ThT) fluorescence assay of α-syn fibril formation; details: compound 100 μM; ThT fluorescence intensity at plateau phase, control = 100%
T2 construct: purchased rPeptide, LLC (Watkinsville, GA)
Description: as §1
For the α-syn ThT assay, ThT was used at a final concentration of 20 μM. α-Syn was dissolved in 20 mM Tris-HCl (pH 7.4) supplemented with 100 mM NaCl to a stock solution of 280 μM (1 mg/250 μL) prior to resuspension in ThT buffer to obtain a final concentration of 2 μM. Compounds and ThT were first added to the wells. The kinetics of fibril formation begin when the α-syn was solubilized in the ThT buffer (10 mM PBS buffer (pH 7.4), supplemented with 0.5 mM SDS and 300 mM NaCl) and added to a non-treated black 96 well microplate with a transparent flat bottom. Each well was filled with a maximum volume of 150 μL buffer with one 3 mm borosilicate bead. The background fluorescence signal consisted of ThT in buffer and 0.25% DMSO without α-syn. The excitation and emission wavelengths were set at 440 and 485 nm, respectively, with a Synergy HT multi-mode microplate reader (BioTek, Winooski, VT). Measurements were taken at 37° C. every 20 minutes over 50 hours of shaking prior to reading the plate. Samples were measured in three replicates and the experiments were repeated three times using different α-syn stock solutions. For each time point, the background fluorescence signal was subtracted. Arbitrary units of fluorescence were calculated from the mean values normalized against the maximum value in each completed assay. Arbitrarily, the maximum value (100%) for the fluorescence intensity was established for α-syn.
Compounds were tested at 100 μM with α-syn at 6 μM, resulting in a molar ratio of approximately 1:16 (protein:compound). The plateau phase of sigmoidal kinetics is of particular interest because it is the phase in which mature fibrils form and where aggregation and disaggregation are at equilibrium with each other; therefore, the fluorescence intensity between multiple compounds at the plateau phase can be compared to identify the compounds with the most promising anti-aggregation activity (Table 1, column α-syn ThT %). […] Compound 17 was the best representative of the 5-aminoindole series and moved to the tier-2 assays, even though the resulting ThT percentage of fluorescence intensity was 10% higher than the cut off. These compounds were then tested on tau 2N4R ThT fluorescence assays.

tau isoform 2N4R [2] = target: T1, tau isoform 2N4R; test: PICUP assay of tau isoform 2N4R oligomerization; details: compound 50 μM
Description: To force the oligomerization by cross-linking, α-syn (from Rpeptide, LLC) and tau isoform 2N4R were diluted in 10 mM phosphate buffer (pH 7.4) to reach a final concentration of 10 μM [27]. Different compounds were added to the protein solution at a final concentration of 50 μM, resulting in a molar ratio of 1:5. To confirm the gradual effect of the compounds on the inhibition of α-syn oligomerization, compounds were tested at final concentration of 3.125, 6.25, 12.5, 25, and 50 μM. The controls consisted of samples without light exposition, without Ru(bpy), and without compound (i.e., 0.125% DMSO). The cross-linking reaction was initiated by the addition of 2 μL of Ru(bpy) (300 μM final concentration) and 2 μL ammonium persulfate (6 mM final concentration). Samples were irradiated immediately. Light exposition was of 1 second duration for ca-syn and 3 second duration for tau isoform 2N4R, with a 53 W (120 V) incandescent lamp installed in a homemade dark-box. Each tube contained a final volume of 20 μL. After irradiation, 8.3 μL. of Lammeli loading buffer containing 15% β-mercaptoethanol was immediately added to the solution, followed by incubation at 95° C. for 10 minutes. The cross-linked samples were separated on a 16% SDS-Page gel and visualized by Coomassie blue staining.
One end point used to verify the propensity of misfolded protein in the drug discovery field is the inhibition of oligomer formation. The photo-induced cross-linking of unmodified proteins (PICUP) assay was used to investigate α-syn (60 μM) and tau isoform 2N4R (6 μM) oligomerization in the presence of eight amide compounds (2, 4, 5, 6, 7, 8, 13, and 17 at 50 μM, i.e., ~molar ratio 1:8 for tau). After being subjected to short light exposure, α-syn and tau were cross-linked and Coomassie-stained resolved as a higher molecular weight compared to control (0.125% DMSO). […] Compound 13 was used as a negative control for the α-syn PICUP.
PICUP assays were performed with different concentrations (50 μM, 25 μM, 12.5 μM, 6.25 μM, 3.125 μM; control=0.125% DMSO) for each lead compound.

For O=C(Nc1cccc2[nH]ccc12)c1ccc(Cl)cc1 [Compound 4, 4-chloro-N-(1H-indol-4-yl)benzamide], the “effect on tau isoform 2N4R fibril formation (ThT)” value (“effect” for short) (tau isoform 2N4R [1]) was “good inhibitory effect” and the remaining activity at 100 µM (α-synuclein (α-syn)) was ≤ 30%.

A remaining activity at 100 µM (α-synuclein (α-syn)) of 64% was found for O=C(Nc1cccc2[nH]ccc12)c1cccs1 [Compound 1] in this work.

A remaining activity at 100 µM (α-synuclein (α-syn)) of 102 ± 13.3% was found for O=C(Nc1ccc2[nH]ccc2c1)c1ccccc1 [Compound 10, N-(1H-indol-5-yl)benzamide] in this work.

A remaining activity at 100 µM (α-synuclein (α-syn)) of 67.5 ± 16.3% was found for O=C(Nc1ccc2[nH]ccc2c1)c1ccc(Cl)cc1 [Compound 12, 4-chloro-N-(1H-indol-5-yl)benzamide] in this work.

N#Cc1ccc(C(=O)Nc2cccc3[nH]ccc23)cc1 [Compound 7, 4-cyano-N-(1H-indol-4-yl)benzamide] was tested, and the “effect” value (tau isoform 2N4R [1]) was “good inhibitory effect” and the remaining activity at 100 µM (α-synuclein (α-syn)) was ≤ 30%.

With O=C(Nc1cccc2[nH]ccc12)c1ccccc1Cl [Compound 5, 2-chloro-N-(1H-indol-4-yl)benzamide] the “effect” value (tau isoform 2N4R [1]) was “good inhibitory effect” and the remaining activity at 100 µM (α-synuclein (α-syn)) was ≤ 30%.

A remaining activity at 100 µM (α-synuclein (α-syn)) of 40% was found for Nc1cccc(C(=O)Nc2ccc3[nH]ccc3c2)c1 [Compound 17, 3-amino-(1H-indol-5-yl)benzamide] in this work.

A remaining activity at 100 µM (α-synuclein (α-syn)) of 62.7 ± 4.1% was found for N#Cc1ccc(C(=O)Nc2ccc3[nH]ccc3c2)cc1 [Compound 15, 4-cyano-N-(1H-indol-5-yl)benzamide] in this work.

A remaining activity at 100 µM (α-synuclein (α-syn)) of 40.5 ± 2.3% was found for O=C(Nc1ccc2[nH]ccc2c1)c1cccs1 [Compound 9, N-(1H-indol-5-yl)thiophene-2-carboxamide] in this work.

For O=C(Nc1cccc2[nH]ccc12)c1ccc(C(F)(F)F)cc1 [Compound 6, N-(1H-indol-4-yl)-4-(rifluoromethyl)benzamide], the “effect” value (tau isoform 2N4R [1]) was “weaker anti-fibrilization effect”, the “tau isoform 2N4R oligomerization (PICUP crosslinking)” value (tau isoform 2N4R [2]) was “strongest oligomer band” and the remaining activity at 100 µM (α-synuclein (α-syn)) was ≤ 30%.

A remaining activity at 100 µM (α-synuclein (α-syn)) of 48.5 ± 1.7% was found for O=C(Nc1ccc2[nH]ccc2c1)c1ccc(F)cc1 [Compound 16, 4-fluoro-N-(1H-indol-5-yl)benzamide] in this work.

O=C(Nc1ccc2c(c1)Cc1ccccc1-2)c1ccc(Cl)cc1 [Compound 18, 4-chloro-N-(9H-fluoren-2-yl)benzamide] was tested, and the remaining activity at 100 µM (α-synuclein (α-syn)) was 69.4% and the “α-Syn ThT%” value (α-synuclein (α-syn)) was 69.4 ± 6.70%.

A remaining activity at 100 µM (α-synuclein (α-syn)) of 48.6 ± 2.6% was found for COc1cccc(C(=O)Nc2ccc3[nH]ccc3c2)c1 [Compound 11, N-(1H-indol-5-yl)-3-methoxybenzamide] in this work.

A remaining activity at 100 µM (α-synuclein (α-syn)) of 43% was found for COc1cccc(C(=O)Nc2cccc3[nH]ccc23)c1 [Compound 3] in this work.
